From ChEMBL document CHEMBL1201862, “PubChem BioAssay data set” (2004)
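These data come from cells grown in 96-well plates and exposed to compound for 48 hours at five concentrations. Here, GI50 denotes the concentration required for 50% inhibition of growth.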 Activity calls are given as the source filed them. Rule as the data show it: active = GI50 up to about 1.1 µM and inactive = higher.

Assays:
Test in all cases: NCI tumour cell line growth inhibition, 48 h
[1] = system: EKVX
[2] = system: HCT-116
[3] = system: HT-29
[4] = system: MDA-MB-231
[5] = system: MDA-MB-435
[6] = system: MOLT-4
[7] = system: NCI-H23
[8] = system: OVCAR-8
[9] = system: PC-3
[10] = system: RPMI-8226
[11] = system: SF-295
[12] = system: SK-MEL-28
[13] = system: SK-MEL-2
[14] = system: SK-MEL-5
[15] = system: SNB-19
[16] = system: SW-620
[17] = system: T47D
[18] = system: U-251
[19] = system: UACC-257

SMILES | GI50 [1] | GI50 [2] | GI50 [3] | GI50 [4] | GI50 [5] | GI50 [6] | GI50 [7] | GI50 [8] | GI50 [9] | GI50 [10] | GI50 [11] | GI50 [12] | GI50 [13] | GI50 [14] | GI50 [15] | GI50 [16] | GI50 [17] | GI50 [18] | GI50 [19]
Cc1occc1C(=S)Nc1ccc(Cl)c(C(=O)OC(C)C2CC2)c1 (stereo not given) | 19.1 µM (inactive) | 26.5 µM (inactive) | 20.6 µM (inactive) | 17.4 µM (inactive) | 24.8 µM (inactive) | 17.4 µM (inactive) | 15.6 µM (inactive) | 18.3 µM (inactive) | 18.9 µM (inactive) | 24.8 µM (inactive) | 17.2 µM (inactive) | 57.9 µM (inactive) | 18.3 µM (inactive) | 15.3 µM (inactive) | 17.3 µM (inactive) | 35.8 µM (inactive) | 19.1 µM (inactive) | 23.9 µM (inactive) | 30.3 µM (inactive)
O=C(NCCN1CCCC1)c1cn2c(ccc3sc4ccccc4c(=O)c32)n1 | 15.6 µM (inactive) | 4.02 µM (inactive) | 3.18 µM (inactive) | 2.16 µM (inactive) | 21 µM (inactive) | 0.422 µM (active) | 14.6 µM (inactive) | 4.95 µM (inactive) | 13.8 µM (inactive) | 1.52 µM (inactive) | 13.8 µM (inactive) | 16.6 µM (inactive) | 19.2 µM (inactive) | 10.3 µM (inactive) | 13.7 µM (inactive) | 1.51 µM (inactive) | 19.6 µM (inactive) | 16.7 µM (inactive) | 17.7 µM (inactive)
CN(C)CCCSc1nc2c(c(=N)n1-c1ccccc1)c(=S)n(-c1ccccc1)c(=S)n2-c1ccccc1 | 1.91 µM (inactive) | 1.98 µM (inactive) | 2.17 µM (inactive) | 1.61 µM (inactive) | 1.72 µM (inactive) | 0.789 µM (active) | 2.07 µM (inactive) | 1.77 µM (inactive) | 1.75 µM (inactive) | 0.39 µM (active) | 5.21 µM (inactive) | 2.04 µM (inactive) | 2.12 µM (inactive) | 1.91 µM (inactive) | 2.51 µM (inactive) | 1.79 µM (inactive) | 2.01 µM (inactive) | 1.75 µM (inactive) | 1.77 µM (inactive)
Cc1ccc(S(=O)(=O)NC2=NS(=O)(=O)c3cc(C)c(Cl)cc3S2)cc1 | > 100 µM (inactive) | 88.3 µM (inactive) | > 100 µM (inactive) | > 100 µM (inactive) | > 100 µM (inactive) | 39.1 µM (inactive) | > 100 µM (inactive) | > 100 µM (inactive) | 45.5 µM (inactive) | > 100 µM (inactive) | 70.5 µM (inactive) | > 100 µM (inactive) | > 100 µM (inactive) | > 100 µM (inactive) | 75 µM (inactive) | 71.6 µM (inactive) | 70.1 µM (inactive) | > 100 µM (inactive) | > 100 µM (inactive)
CC1(C)N=C(N)N=C(N)N1c1ccc(CCCCc2ccc(Cl)cc2Cl)cc1 | 15.1 µM (inactive) | 0.247 µM (active) | 0.546 µM (active) | 2.07 µM (inactive) | 0.598 µM (active) | 0.861 µM (active) | 0.339 µM (active) | 0.598 µM (active) | 0.418 µM (active) | 1.17 µM (inactive) | 0.893 µM (active) | 2.88 µM (inactive) | 0.887 µM (active) | 1.12 µM (inactive) | 0.527 µM (active) | 0.356 µM (active) | 1.29 µM (inactive) | 0.245 µM (active) | 0.659 µM (active)
OC1CCC(COC(c2ccccc2)(c2ccccc2)c2ccccc2)O1 (stereo not given) | > 10 µM (inactive) | 16.7 µM (inactive) | 18.3 µM (inactive) | 16.6 µM (inactive) | 21.5 µM (inactive) | 11.1 µM (inactive) | 18 µM (inactive) | 17.9 µM (inactive) | 10.7 µM (inactive) | 19.5 µM (inactive) | 15.9 µM (inactive) | 18 µM (inactive) | 18.1 µM (inactive) | 16.9 µM (inactive) | 21.1 µM (inactive) | 17.5 µM (inactive) | 20.2 µM (inactive) | 18.8 µM (inactive) | 16.8 µM (inactive)
Cc1[nH]c2c(c1C)S(=O)(=O)c1cc3ccccc3nc1N2 | 36.7 µM (inactive) | 15.8 µM (inactive) | 15 µM (inactive) | 27.8 µM (inactive) | 26.4 µM (inactive) | > 100 µM (inactive) | 23.9 µM (inactive) | 12.3 µM (inactive) | 34.3 µM (inactive) | 14.7 µM (inactive) | 27.3 µM (inactive) | 25.5 µM (inactive) | 55.3 µM (inactive) | 14.6 µM (inactive) | 26.2 µM (inactive) | 40.4 µM (inactive) | > 100 µM (inactive) | 11.2 µM (inactive) | 35.9 µM (inactive)
COc1ccccc1Nc1nc(N)nc(N)c1N | > 100 µM (inactive) | 19 µM (inactive) | 45.4 µM (inactive) | 29.4 µM (inactive) | 27.5 µM (inactive) | 14.7 µM (inactive) | 66.1 µM (inactive) | > 100 µM (inactive) | 90.8 µM (inactive) | 34.4 µM (inactive) | 28.6 µM (inactive) | > 100 µM (inactive) | > 100 µM (inactive) | 54.1 µM (inactive) | > 100 µM (inactive) | 27.2 µM (inactive) | 58.5 µM (inactive) | 64.3 µM (inactive) | 60.3 µM (inactive)
CN1CCN(CCCCN2c3ccccc3Sc3ccc(N=[N+]=[N-])cc32)CC1 | 13.6 µM (inactive) | 3.72 µM (inactive) | 2.07 µM (inactive) | 4.3 µM (inactive) | 2.07 µM (inactive) | 2.41 µM (inactive) | 17.8 µM (inactive) | 13.5 µM (inactive) | 4.65 µM (inactive) | 2.36 µM (inactive) | 12.2 µM (inactive) | 1.84 µM (inactive) | 3.99 µM (inactive) | 2.26 µM (inactive) | 13.4 µM (inactive) | 2.68 µM (inactive) | 14.9 µM (inactive) | 4.95 µM (inactive) | 2.06 µM (inactive)
O=C(Nc1ccc(Cl)c(Cl)c1)N1N=C2c3ccccc3CCC2C1c1ccc(Cl)cc1 (stereo not given) | > 100 µM (inactive) | > 100 µM (inactive) | > 100 µM (inactive) | > 100 µM (inactive) | > 100 µM (inactive) | > 100 µM (inactive) | > 100 µM (inactive) | > 100 µM (inactive) | > 100 µM (inactive) | > 100 µM (inactive) | > 100 µM (inactive) | > 100 µM (inactive) | > 100 µM (inactive) | > 100 µM (inactive) | > 100 µM (inactive) | > 100 µM (inactive) | > 100 µM (inactive) | > 100 µM (inactive) | > 100 µM (inactive)
CC1=NN(c2nc(N)nc(CCl)n2)C(C)(C)C1 | 12.9 µM (inactive) | 25.9 µM (inactive) | 29.9 µM (inactive) | 29.3 µM (inactive) | 34.8 µM (inactive) | 19.5 µM (inactive) | 10.8 µM (inactive) | 23.9 µM (inactive) | 40.8 µM (inactive) | 25.6 µM (inactive) | 25.7 µM (inactive) | 34.1 µM (inactive) | 46.8 µM (inactive) | 19.8 µM (inactive) | > 61.9 µM (inactive) | 25.6 µM (inactive) | 45.6 µM (inactive) | 25.4 µM (inactive) | 51.9 µM (inactive)
COC(=O)C[C@H](CCSC)NC(=O)C[C@H](CCSC)NC(=O)C[C@H](CCSC)NC(=O)OC(C)(C)C | 34.8 µM (inactive) | 37.1 µM (inactive) | > 100 µM (inactive) | 38.5 µM (inactive) | 39.5 µM (inactive) | > 100 µM (inactive) | 47.2 µM (inactive) | 28.7 µM (inactive) | > 100 µM (inactive) | > 100 µM (inactive) | 21.8 µM (inactive) | > 100 µM (inactive) | 24.2 µM (inactive) | 56.4 µM (inactive) | 20.7 µM (inactive) | > 100 µM (inactive) | 63.1 µM (inactive) | 19.5 µM (inactive) | 68.5 µM (inactive)
Nc1ncnc2c1ncn2CCCNO | > 100 µM (inactive) | > 100 µM (inactive) | > 100 µM (inactive) | > 100 µM (inactive) | > 100 µM (inactive) | > 100 µM (inactive) | > 100 µM (inactive) | > 100 µM (inactive) | > 100 µM (inactive) | > 100 µM (inactive) | > 100 µM (inactive) | > 100 µM (inactive) | > 100 µM (inactive) | > 100 µM (inactive) | > 100 µM (inactive) | > 100 µM (inactive) | > 100 µM (inactive) | > 100 µM (inactive) | > 100 µM (inactive)
Cc1c(O)oc2ccccc2c1=O | > 100 µM (inactive) | > 100 µM (inactive) | > 100 µM (inactive) | > 100 µM (inactive) | > 100 µM (inactive) | > 100 µM (inactive) | > 100 µM (inactive) | > 100 µM (inactive) | > 100 µM (inactive) | > 100 µM (inactive) | > 100 µM (inactive) | > 100 µM (inactive) | > 100 µM (inactive) | > 100 µM (inactive) | > 100 µM (inactive) | > 100 µM (inactive) | > 100 µM (inactive) | > 100 µM (inactive) | > 100 µM (inactive)
CCOC(=O)c1c(CN2CCCC2)n(-c2ccccc2)c2cc(Br)c(O)cc12 | 17 µM (inactive) | 16 µM (inactive) | 5.86 µM (inactive) | 17.8 µM (inactive) | 18 µM (inactive) | 17 µM (inactive) | 19.3 µM (inactive) | 22.9 µM (inactive) | 21.3 µM (inactive) | 16.2 µM (inactive) | 16.6 µM (inactive) | 15.1 µM (inactive) | 18.3 µM (inactive) | 13.4 µM (inactive) | 16.5 µM (inactive) | 17.7 µM (inactive) | 20.7 µM (inactive) | 16.3 µM (inactive) | 17.5 µM (inactive)
